In PubChem BioAssay (NCI):
≈ marks a conversion by molar mass, not a printed value.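 Dose response: 5 concentrations. Exposure: 48 h. Format: 96-well plates. Endpoint: linear interpolation; highest concentration if not reached. The concentration for 50% growth inhibition is given as GI50. At the TGI there is no net growth.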

Legend:
Experiment in all cases: NCI anticancer screen, dose series, 48 h
BT-549 breast = tested on: BT-549 breast
CCRF-CEM leukemia = tested on: CCRF-CEM leukemia
HOP-92 NSCLC = tested on: HOP-92 NSCLC
LOX IMVI melanoma = tested on: LOX IMVI melanoma
NCI-H23 lung = tested on: NCI-H23 lung
RPMI-8226 leukemia = tested on: RPMI-8226 leukemia
UO-31 renal = tested on: UO-31 renal
786-0 renal = tested on: 786-0 renal
A498 renal = tested on: A498 renal
A549 NSCLC = tested on: A549 NSCLC
ACHN renal = tested on: ACHN renal
CAKI-1 renal = tested on: CAKI-1 renal
DU-145 prostate = tested on: DU-145 prostate
EKVX NSCLC = tested on: EKVX NSCLC
HCC-2998 colon = tested on: HCC-2998 colon
HCT-116 colon = tested on: HCT-116 colon
HCT-15 colon = tested on: HCT-15 colon
HL-60(TB) leukemia = tested on: HL-60(TB) leukemia
HOP-62 NSCLC = tested on: HOP-62 NSCLC
HS 578T breast = tested on: HS 578T breast
HT29 colon = tested on: HT29 colon
IGROV1 ovarian = tested on: IGROV1 ovarian
K-562 leukemia = tested on: K-562 leukemia
KM12 colon = tested on: KM12 colon
M14 melanoma = tested on: M14 melanoma
MALME-3M melanoma = tested on: MALME-3M melanoma
MCF7 breast = tested on: MCF7 breast
MDA-MB-231 breast = tested on: MDA-MB-231 breast
MDA-MB-435 = tested on: MDA-MB-435
MOLT-4 leukemia = tested on: MOLT-4 leukemia
NCI-H226 lung = tested on: NCI-H226 lung
NCI-H460 lung = tested on: NCI-H460 lung
NCI-H522 lung = tested on: NCI-H522 lung
NCI/ADR-RES ovarian = tested on: NCI/ADR-RES ovarian
OVCAR-3 ovarian = tested on: OVCAR-3 ovarian
OVCAR-4 ovarian = tested on: OVCAR-4 ovarian
OVCAR-5 ovarian = tested on: OVCAR-5 ovarian
OVCAR-8 ovarian = tested on: OVCAR-8 ovarian
PC-3 prostate = tested on: PC-3 prostate
RXF 393 renal = tested on: RXF 393 renal
SF-268 CNS = tested on: SF-268 CNS
SF-295 CNS = tested on: SF-295 CNS
SF-539 CNS = tested on: SF-539 CNS
SK-MEL-2 melanoma = tested on: SK-MEL-2 melanoma
SK-MEL-28 melanoma = tested on: SK-MEL-28 melanoma
SK-MEL-5 melanoma = tested on: SK-MEL-5 melanoma
SK-OV-3 ovarian = tested on: SK-OV-3 ovarian
SN12C renal = tested on: SN12C renal
SNB-19 CNS = tested on: SNB-19 CNS
SNB-75 CNS = tested on: SNB-75 CNS
SW-620 colon = tested on: SW-620 colon
TK-10 renal = tested on: TK-10 renal
U251 CNS = tested on: U251 CNS
UACC-257 melanoma = tested on: UACC-257 melanoma
UACC-62 melanoma = tested on: UACC-62 melanoma

Which results are given for `COc1cc(C=C2C(=O)NC(=O)NC2=O)ccc1OCc1ccccc1`?
GI50 (BT-549 breast): 33.9 µg/mL; GI50 (CCRF-CEM leukemia): 79.7 µg/mL; GI50 (HOP-92 NSCLC): 71.8 µg/mL (≈ 204 µM); GI50 (LOX IMVI melanoma): 87.8 µg/mL; GI50 (NCI-H23 lung): 69.9 µg/mL; GI50 (RPMI-8226 leukemia): 22.3 µg/mL; GI50 (UO-31 renal): 61.2 µg/mL

With `C=CC(=O)N1CCN(CCCn2c(=O)c(-c3c(Cl)c(OC)cc(OC)c3Cl)cc3cnc(NC)nc32)CC1` as the molecule, how does the GI50 (786-0 renal) read?
The GI50 was 1.32 µM.

What about the TGI (786-0 renal) of the same molecule?
Its TGI is 17.2 µM.

What about the TGI (A498 renal) of the same molecule?
Its TGI is 1.81 µM.

What about the GI50 (A549 NSCLC) of the same molecule?
Its GI50 is 4.41 µM.

What about the TGI (A549 NSCLC) of the same molecule?
Its TGI is 19.7 µM.

What about the GI50 (ACHN renal) of the same molecule?
The GI50 was 0.71 µM.

And the TGI (ACHN renal)?
Its TGI is 11.6 µM.

And the GI50 (BT-549 breast)?
Its GI50 is 0.681 µM.

What about the TGI (BT-549 breast) of the same molecule?
Its TGI is 16 µM.

What about the GI50 (CAKI-1 renal) of the same molecule?
The GI50 was 0.782 µM.

And the TGI (CAKI-1 renal)?
The TGI was 13.6 µM.

What about the GI50 (CCRF-CEM leukemia) of the same molecule?
Its GI50 is 2.04 µM.

What about the TGI (CCRF-CEM leukemia) of the same molecule?
Its TGI is 11.9 µM.

And the GI50 (DU-145 prostate)?
Its GI50 is 2.69 µM.

And the TGI (DU-145 prostate)?
Its TGI is 17.7 µM.

What about the GI50 (EKVX NSCLC) of the same molecule?
The GI50 was 4.38 µM.

And the TGI (EKVX NSCLC)?
Its TGI is 19.6 µM.

What about the GI50 (HCC-2998 colon) of the same molecule?
Its GI50 is 10.9 µM.

What about the TGI (HCC-2998 colon) of the same molecule?
Its TGI is 24.6 µM.

And the GI50 (HCT-116 colon)?
The GI50 was 2.63 µM.

And the TGI (HCT-116 colon)?
Its TGI is 17.1 µM.

What about the GI50 (HCT-15 colon) of the same molecule?
Its GI50 is 2.63 µM.

And the TGI (HCT-15 colon)?
Its TGI is 15 µM.

What about the GI50 (HL-60(TB) leukemia) of the same molecule?
The GI50 was 2.8 µM.

And the TGI (HL-60(TB) leukemia)?
Its TGI is 29 µM.

And the GI50 (HOP-62 NSCLC)?
Its GI50 is 5.56 µM.

What about the TGI (HOP-62 NSCLC) of the same molecule?
The TGI was 19.3 µM.

And the GI50 (HS 578T breast)?
Its GI50 is 2.25 µM.

What about the TGI (HS 578T breast) of the same molecule?
The TGI was 51.8 µM.

What about the GI50 (HT29 colon) of the same molecule?
Its GI50 is 4.4 µM.

And the TGI (HT29 colon)?
The TGI was 20 µM.

And the GI50 (IGROV1 ovarian)?
Its GI50 is 0.888 µM.

What about the TGI (IGROV1 ovarian) of the same molecule?
Its TGI is 13.8 µM.

And the GI50 (K-562 leukemia)?
Its GI50 is 5.96 µM.

And the TGI (K-562 leukemia)?
Its TGI is over 100 µM.

And the GI50 (KM12 colon)?
The GI50 was 4.61 µM.

What about the TGI (KM12 colon) of the same molecule?
Its TGI is 19.9 µM.

What about the GI50 (LOX IMVI melanoma) of the same molecule?
The GI50 was 1.67 µM.

And the TGI (LOX IMVI melanoma)?
The TGI was 15 µM.

And the GI50 (M14 melanoma)?
Its GI50 is 1.67 µM.

And the TGI (M14 melanoma)?
Its TGI is 16.8 µM.

What about the GI50 (MALME-3M melanoma) of the same molecule?
The GI50 was 1.7 µM.

And the TGI (MALME-3M melanoma)?
Its TGI is 12.5 µM.

What about the GI50 (MCF7 breast) of the same molecule?
The GI50 was 8.06 µM.

And the TGI (MCF7 breast)?
The TGI was 31.8 µM.

What about the GI50 (MDA-MB-231 breast) of the same molecule?
The GI50 was 3.52 µM.

What about the TGI (MDA-MB-231 breast) of the same molecule?
Its TGI is 14.6 µM.

What about the GI50 (MDA-MB-435) of the same molecule?
The GI50 was 2.74 µM.

What about the TGI (MDA-MB-435) of the same molecule?
Its TGI is 13.8 µM.

And the GI50 (MOLT-4 leukemia)?
Its GI50 is 1.83 µM.

And the TGI (MOLT-4 leukemia)?
The TGI was over 100 µM.

And the GI50 (NCI-H226 lung)?
The GI50 was 0.0408 µM.

And the TGI (NCI-H226 lung)?
Its TGI is 20.7 µM.

What about the GI50 (NCI-H23 lung) of the same molecule?
The GI50 was 5.57 µM.

What about the TGI (NCI-H23 lung) of the same molecule?
The TGI was 20.9 µM.

What about the GI50 (NCI-H460 lung) of the same molecule?
Its GI50 is 3.22 µM.

And the TGI (NCI-H460 lung)?
The TGI was 19 µM.

And the GI50 (NCI-H522 lung)?
Its GI50 is 2.51 µM.

What about the TGI (NCI-H522 lung) of the same molecule?
The TGI was 14.6 µM.

What about the GI50 (NCI/ADR-RES ovarian) of the same molecule?
Its GI50 is 7.12 µM.

And the TGI (NCI/ADR-RES ovarian)?
Its TGI is 67.6 µM.

What about the GI50 (OVCAR-3 ovarian) of the same molecule?
The GI50 was 5.6 µM.

What about the TGI (OVCAR-3 ovarian) of the same molecule?
Its TGI is 20.4 µM.

What about the GI50 (OVCAR-4 ovarian) of the same molecule?
The GI50 was 1.14 µM.

What about the TGI (OVCAR-4 ovarian) of the same molecule?
Its TGI is 25 µM.

And the GI50 (OVCAR-5 ovarian)?
Its GI50 is 15.8 µM.

What about the TGI (OVCAR-5 ovarian) of the same molecule?
Its TGI is 33.5 µM.

What about the GI50 (OVCAR-8 ovarian) of the same molecule?
The GI50 was 3.95 µM.

And the TGI (OVCAR-8 ovarian)?
Its TGI is 22.9 µM.

What about the GI50 (PC-3 prostate) of the same molecule?
Its GI50 is 2.5 µM.

And the TGI (PC-3 prostate)?
The TGI was 11.4 µM.

And the GI50 (RPMI-8226 leukemia)?
The GI50 was 1.03 µM.

What about the TGI (RPMI-8226 leukemia) of the same molecule?
Its TGI is 4.09 µM.

What about the GI50 (RXF 393 renal) of the same molecule?
Its GI50 is 1.33 µM.

What about the TGI (RXF 393 renal) of the same molecule?
Its TGI is 12.9 µM.

What about the GI50 (SF-268 CNS) of the same molecule?
Its GI50 is 3.02 µM.

What about the TGI (SF-268 CNS) of the same molecule?
The TGI was 21.3 µM.

What about the GI50 (SF-295 CNS) of the same molecule?
The GI50 was 3.54 µM.

And the TGI (SF-295 CNS)?
Its TGI is 16.5 µM.

What about the GI50 (SF-539 CNS) of the same molecule?
Its GI50 is 1.58 µM.

What about the TGI (SF-539 CNS) of the same molecule?
Its TGI is 9.5 µM.

What about the GI50 (SK-MEL-2 melanoma) of the same molecule?
The GI50 was 1.13 µM.

And the TGI (SK-MEL-2 melanoma)?
The TGI was 6.31 µM.

And the GI50 (SK-MEL-28 melanoma)?
Its GI50 is 7.07 µM.

And the TGI (SK-MEL-28 melanoma)?
Its TGI is 20.9 µM.

What about the GI50 (SK-MEL-5 melanoma) of the same molecule?
The GI50 was 1.65 µM.

And the TGI (SK-MEL-5 melanoma)?
Its TGI is 12.3 µM.

And the GI50 (SK-OV-3 ovarian)?
Its GI50 is 2.18 µM.

What about the TGI (SK-OV-3 ovarian) of the same molecule?
The TGI was 8.38 µM.

And the GI50 (SN12C renal)?
The GI50 was 3.13 µM.

And the TGI (SN12C renal)?
The TGI was 16.2 µM.

What about the GI50 (SNB-19 CNS) of the same molecule?
The GI50 was 7.32 µM.

What about the TGI (SNB-19 CNS) of the same molecule?
The TGI was 20.7 µM.

And the TGI (SNB-75 CNS)?
Its TGI is 9.36 µM.

And the GI50 (SW-620 colon)?
Its GI50 is 4.07 µM.

What about the TGI (SW-620 colon) of the same molecule?
Its TGI is 34.2 µM.

And the GI50 (TK-10 renal)?
The GI50 was 1.75 µM.

And the TGI (TK-10 renal)?
Its TGI is 16.6 µM.

What about the GI50 (U251 CNS) of the same molecule?
Its GI50 is 2.57 µM.

And the TGI (U251 CNS)?
Its TGI is 17 µM.

What about the GI50 (UACC-257 melanoma) of the same molecule?
Its GI50 is 3.8 µM.

And the TGI (UACC-257 melanoma)?
Its TGI is 18 µM.

What about the GI50 (UACC-62 melanoma) of the same molecule?
Its GI50 is 2.79 µM.

And the TGI (UACC-62 melanoma)?
Its TGI is 15.1 µM.

What about the GI50 (UO-31 renal) of the same molecule?
Its GI50 is 0.849 µM.

What about the TGI (UO-31 renal) of the same molecule?
The TGI was 12.4 µM.
